Measurements published in US20070015723A1, “Antiviral oligonucleotides having a conserved G4 core sequence” (priority 1992, published 2007).
Values joined by “and” are separate entries in the source; they are usually repeats but may differ in a detail not shown here. Equal entries are not always repeated.

Tests used:
[1] = tested on: influenza strain A/NWS/33 (H1N1); type: cell-based, influenza virus
[2] = tested on: Adenovirus, Type 5 (A-5), strain Adenoid 75; type: cell-based
[3] = tested on: respiratory syncytial virus (RSV) strain Long; type: cell-based
HSV-1 (KOS) [4] = assay: HSV-1 virus yield assay; type: cell-based; conditions: FIG. 2
HIV = type: cell-based
varicella zoster virus = type: cell-based
[5] = tested on: rhinovirus 2 (R-2), strain HGP; type: cell-based, human rhinovirus
HIV-1IIIB = assay: Acute HIV infection assay (XTT, CEM cells)
HSV-1 (KOS) [6] = assay: HSV-1 infection ELISA assay; type: cell-based; conditions: 50% inhibition of HSV replication relative to control infected cells; Table 1
HSV-2 strain E194 = type: cell-based

ISIS 5652: TT GGGG TT GGGG TT GGGG TT, P = S, SEQ ID NO 37 (TTGGGGTTGGGGTTGGGGTT; all phosphorothioate, sugars by position not given here)
ED50 [1]: 600 nM
TI [1]: 93
ED50 [2]: >100000 nM
TI [2]: <1.0
ED50 [3]: 1900 nM
TI [3]: >53
anti-HSV activity in virus yield assay (HSV-1 (KOS) [4]): dose-dependent anti-HSV activity
ED50 (HIV): 180 nM
TI (HIV): 227
ED50 (varicella zoster virus): 18000 nM
ED50 [5]: >100000 nM
TI (TC50/IC50) (HIV-1IIIB): 227
IC50 (HIV-1IIIB; inhibition of HIV): 100 nM and 180 nM
EC50 (HSV-1 (KOS) [6]): 160 nM
ED50 (HSV-2 strain E194): 300 nM
TI (HSV-2 strain E194): >333
